Measurements: US6569834B1, “Elucidation and synthesis of antineoplastic tetrapeptide w-aminoalkyl-amides” (priority 1992, dated 2003)
Values after ≈ are worked out from the molar mass of the structure shown.

Key:
Type in all cases: cell-based
P-388 = experiment: Cancer cell growth inhibition, murine P388 lymphocytic leukemia cell line; set-up: unit not given here; conditions: Mouse leukemia cell P-388
Excerpt: (§1) The extraordinary inhibition of cell growth shown by the tetrapeptide w-aminoalkylamides 6a-d against six major types of human cancer and against the murine P388 lymphocytic leukemia cell line has been presented in Table I.

OVCAR-3 = experiment: Human cancer cell growth inhibition, ovarian OVCAR-3
Excerpt: (§2) Only two hundred years ago, many diseases ravaged humankind. Many of these diseases have been controlled or eradicated. In the development of the means to treat or control these diseases, work with the appropriate common experimental animals was of critical importance. With the various types of cancers, and with the HIV virus, such work is presently ongoing. The research for the treatment of various types of cancer is coordinated by the National Cancer Institute (NCI). NCI, as a government entity, has been charged with assisting anti-cancer research. To establish whether a substance has anti cancer activity, NCI has established a protocol. This protocol, which involves testing a substance against a cell line panel containing 60 human tumor cell lines, has been verified, and is accepted in scientific circles. This protocol, and the established statistical means of evaluating the results obtained therefrom have been amply described in the literature. See e.g. Principles & Practice of Oncology PPO Updates, Volume 3, Number 10, October 1989, by Michael R. Boyd, M. D., Ph.D., for a description of the protocol. The statistical analysis is explained in “Display and Analysis of Patterns of Differential Activity of Drugs Against Human Tumor Cell Lines: Development of Mean Graph and COMPARE Algorithm” Journal of the National Cancer Institute Reports Vol. 81, No. 14, Pg. 1088, July 14, 1989, by K. D. Paull et al. Both articles are incorporated herein by this reference as if fully set forth.
as §1

SF-295 = experiment: Human cancer cell growth inhibition, CNS SF-295
Excerpt: as §2, §1

A498 = experiment: Human cancer cell growth inhibition, renal A498
Excerpt: as §2, §1

NCI-460 = experiment: Human cancer cell growth inhibition, Lung-NSC NCI-460
Excerpt: as §2, §1

KM20L2 = experiment: Human cancer cell growth inhibition, colon KM20L2
Excerpt: as §2, §1

SK-MEL-3 = experiment: Human cancer cell growth inhibition, melanoma SK-MEL-3
Excerpt: as §2, §1

human cancer cell line = experiment: Human cancer cell line activity compared to dolastatin 10

| Compound | Cancer cell growth inhibitory activity (P-388) | GI-50 (OVCAR-3) | TGI (OVCAR-3) | GI-50 (SF-295) | TGI (SF-295) | GI-50 (A498) | TGI (A498) | GI-50 (NCI-460) | TGI (NCI-460) | GI-50 (KM20L2) | TGI (KM20L2) | GI-50 (SK-MEL-3) | TGI (SK-MEL-3) | human cancer cell line activity as compared to dolastatin 10 (human cancer cell line) |
| --- | --- | --- | --- | --- | --- | --- | --- | --- | --- | --- | --- | --- | --- | --- |
| CC[C@H](C)[C@@H]([C@@H](CC(=O)N1CCC[C@H]1[C@H](OC)[C@@H](C)C(=O)NCCc1ccccn1)OC)N(C)C(=O)[C@@H](NC(=O)[C@H](C(C)C)N(C)C)C(C)C [Peptide 6a, [2S-[1[1R*(R*),2S*],2R*[1S*,2S*]]]-N,N-dimethyl-L-valyl-N-[2-methoxy-4-[2-[1-methoxy-2-methyl-3-oxo-3-[[2-(2-pyridyl)ethyl]amino]propyl]-1-pyrrolidinyl-1-(methylpropyl)-4-oxobutyl]-N-methyl-L-valineamide] | 0.000713 | 0.000039 µg/mL | 0.21 ng/mL (≈ 0.000299 µM) | 0.00035 µg/mL | <10 ng/mL | 0.00043 µg/mL | <10 ng/mL | 0.00024 µg/mL | 0.8 ng/mL (≈ 0.00114 µM) | 0.000062 µg/mL | 1.1 ng/mL (≈ 0.00156 µM) | 0.000065 µg/mL | 0.77 ng/mL (≈ 0.0011 µM) | – |
| CC[C@H](C)[C@@H]([C@@H](CC(=O)N1CCC[C@H]1[C@H](OC)[C@@H](C)C(=O)NCCN1CCOCC1)OC)N(C)C(=O)[C@@H](NC(=O)[C@H](C(C)C)N(C)C)C(C)C [Peptide 6b, [2S-[1[1R*(R*),2S*],2R*[1S*,2S*]]]-N,N-dimethyl-L-valyl-N-[2-methoxy-4-[2-[1-methoxy-2-methyl-3-oxo-3-[[2-(4-morpholino)ethyl]amino]propyl]-1-pyrrolidinyl-1-(methylpropyl)-4-oxobutyl]-N-methyl-L-valineamide] | 0.0736 | <0.0001 µg/mL | <0.1 ng/mL | <0.0001 µg/mL | <0.1 ng/mL | <0.0001 µg/mL | <0.1 ng/mL | <0.0001 µg/mL | <0.1 ng/mL | <0.0001 µg/mL | <0.1 ng/mL | <0.0001 µg/mL | <0.1 ng/mL | – |
| CC[C@H](C)[C@@H]([C@@H](CC(=O)N1CCC[C@H]1[C@H](OC)[C@@H](C)C(=O)NCCN(C)C)OC)N(C)C(=O)[C@@H](NC(=O)[C@H](C(C)C)N(C)C)C(C)C [Peptide 6c, [2S-[1[1R*(R*),2S*],2R*[1S*,2S*]]]-N,N-dimethyl-L-valyl-N-[2-methoxy-4-[2-[1-methoxy-2-methyl-3-oxo-3-[[2-dimethylamino-ethyl]amino]propyl]-1-pyrrolidinyl-1-(methylpropyl)-4-oxobutyl]-N-methyl-L-valineamide] | <0.1 | 0.0028 µg/mL | 8.6 ng/mL (≈ 0.0129 µM) | 0.0033 µg/mL | <10 ng/mL | 0.0025 µg/mL | 5.6 ng/mL (≈ 0.00837 µM) | 0.0051 µg/mL | <10 ng/mL | <0.01 µg/mL | <10 ng/mL | <0.01 µg/mL | <10 ng/mL | – |
| CC[C@H](C)[C@@H]([C@@H](CC(=O)N1CCC[C@H]1[C@H](OC)[C@@H](C)C(=O)NCCCN(C)C)OC)N(C)C(=O)[C@@H](NC(=O)[C@H](C(C)C)N(C)C)C(C)C [Peptide 6d, [2S-[1[1R*(R*),2S*],2R*[1S*,2S*]]]-N,N-dimethyl-L-valyl-N-[2-methoxy-4-[2-[1-methoxy-2-methyl-3-oxo-3-[[3-dimethylamino-propyl]amino]propyl]-1-pyrrolidinyl-1-(methylpropyl)-4-oxobutyl]-N-methyl-L-valineamide] | 0.881 | <0.01 µg/mL | <10 ng/mL | <0.01 µg/mL | <10 ng/mL | <0.01 µg/mL | <10 ng/mL | 0.0072 µg/mL | <10 ng/mL | <0.01 µg/mL | <10 ng/mL | <0.01 µg/mL | <10 ng/mL | – |
| R-Doe-isodolastatin 10 | – | – | – | – | – | – | – | – | – | – | – | – | – | did not show any significant difference |
